Results reported in PubChem BioAssay (NCI).
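96-well plates; 48 h exposure; 5 concentrations. Endpoints by linear interpolation between flanking doses. Not reached: highest tested concentration assigned. At the TGI there is no net growth.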

Key:
Test in all cases: DTP human tumour cell line panel, 48 h
786-0 renal = test system: 786-0 renal
A498 renal = test system: A498 renal
A549 NSCLC = test system: A549 NSCLC
ACHN renal = test system: ACHN renal
BT-549 breast = test system: BT-549 breast
CAKI-1 renal = test system: CAKI-1 renal
CCRF-CEM leukemia = test system: CCRF-CEM leukemia
COLO 205 colon = test system: COLO 205 colon
DU-145 prostate = test system: DU-145 prostate
EKVX NSCLC = test system: EKVX NSCLC
HCT-116 colon = test system: HCT-116 colon
HCT-15 colon = test system: HCT-15 colon
HL-60(TB) leukemia = test system: HL-60(TB) leukemia
HOP-62 NSCLC = test system: HOP-62 NSCLC
HOP-92 NSCLC = test system: HOP-92 NSCLC
HS 578T breast = test system: HS 578T breast
HT29 colon = test system: HT29 colon
IGROV1 ovarian = test system: IGROV1 ovarian
K-562 leukemia = test system: K-562 leukemia
KM12 colon = test system: KM12 colon
LOX IMVI melanoma = test system: LOX IMVI melanoma
M14 melanoma = test system: M14 melanoma
MALME-3M melanoma = test system: MALME-3M melanoma
MCF7 breast = test system: MCF7 breast
MDA-MB-231 breast = test system: MDA-MB-231 breast
MDA-MB-435 = test system: MDA-MB-435
MDA-N = test system: MDA-N
MOLT-4 leukemia = test system: MOLT-4 leukemia
NCI-H226 lung = test system: NCI-H226 lung
NCI-H23 lung = test system: NCI-H23 lung
NCI-H460 lung = test system: NCI-H460 lung
NCI-H522 lung = test system: NCI-H522 lung
NCI/ADR-RES ovarian = test system: NCI/ADR-RES ovarian
OVCAR-3 ovarian = test system: OVCAR-3 ovarian
OVCAR-4 ovarian = test system: OVCAR-4 ovarian
OVCAR-5 ovarian = test system: OVCAR-5 ovarian
OVCAR-8 ovarian = test system: OVCAR-8 ovarian
PC-3 prostate = test system: PC-3 prostate
RPMI-8226 leukemia = test system: RPMI-8226 leukemia
RXF 393 renal = test system: RXF 393 renal
SF-268 CNS = test system: SF-268 CNS
SF-295 CNS = test system: SF-295 CNS
SF-539 CNS = test system: SF-539 CNS
SK-MEL-2 melanoma = test system: SK-MEL-2 melanoma
SK-MEL-28 melanoma = test system: SK-MEL-28 melanoma
SK-MEL-5 melanoma = test system: SK-MEL-5 melanoma
SK-OV-3 ovarian = test system: SK-OV-3 ovarian
SN12C renal = test system: SN12C renal
SNB-19 CNS = test system: SNB-19 CNS
SNB-75 CNS = test system: SNB-75 CNS
SR leukemia = test system: SR leukemia
SW-620 colon = test system: SW-620 colon
T-47D breast = test system: T-47D breast
TK-10 renal = test system: TK-10 renal
U251 CNS = test system: U251 CNS
UACC-257 melanoma = test system: UACC-257 melanoma
UACC-62 melanoma = test system: UACC-62 melanoma
UO-31 renal = test system: UO-31 renal
HCC-2998 colon = test system: HCC-2998 colon

Measured: TGI

Nc1c(S(=O)(=O)O)cc(Nc2cccc(S(N)(=O)=O)c2)c2c1C(=O)c1ccccc1C2=O
69.9 µM: HS 578T breast
> 100 µM: 786-0 renal | A498 renal | A549 NSCLC | ACHN renal | BT-549 breast | CAKI-1 renal | CCRF-CEM leukemia | COLO 205 colon | DU-145 prostate | EKVX NSCLC | HCT-116 colon | HCT-15 colon | HL-60(TB) leukemia | HOP-92 NSCLC | HT29 colon | IGROV1 ovarian | K-562 leukemia | KM12 colon | LOX IMVI melanoma | M14 melanoma | MCF7 breast | MDA-MB-231 breast | MOLT-4 leukemia | NCI-H226 lung | NCI-H23 lung | NCI-H460 lung | NCI-H522 lung | NCI/ADR-RES ovarian | OVCAR-3 ovarian | OVCAR-4 ovarian | OVCAR-5 ovarian | OVCAR-8 ovarian | PC-3 prostate | RPMI-8226 leukemia | RXF 393 renal | SF-268 CNS | SF-295 CNS | SF-539 CNS | SK-MEL-2 melanoma | SK-MEL-28 melanoma | SK-MEL-5 melanoma | SN12C renal | SNB-19 CNS | SR leukemia | SW-620 colon | T-47D breast | TK-10 renal | U251 CNS | UACC-257 melanoma | UO-31 renal
69 µM: SNB-75 CNS
32.6 µM: MDA-MB-435
58.7 µM: UACC-62 melanoma
84.6 µM: SK-OV-3 ovarian
42.8 µM: MDA-N
71.9 µM: HOP-62 NSCLC
87.9 µM: MALME-3M melanoma

Clc1ccccc1-c1nc(-c2ccncc2)no1
> 100 µM: 786-0 renal | A498 renal | A549 NSCLC | ACHN renal | BT-549 breast | CAKI-1 renal | COLO 205 colon | DU-145 prostate | EKVX NSCLC | HCT-116 colon | HCT-15 colon | HOP-62 NSCLC | HOP-92 NSCLC | HS 578T breast | HT29 colon | IGROV1 ovarian | K-562 leukemia | KM12 colon | M14 melanoma | MALME-3M melanoma | MCF7 breast | MDA-MB-231 breast | MDA-MB-435 | MDA-N | MOLT-4 leukemia | NCI-H226 lung | NCI-H23 lung | NCI-H460 lung | NCI-H522 lung | NCI/ADR-RES ovarian | OVCAR-3 ovarian | OVCAR-4 ovarian | OVCAR-5 ovarian | OVCAR-8 ovarian | PC-3 prostate | RPMI-8226 leukemia | RXF 393 renal | SF-268 CNS | SF-295 CNS | SF-539 CNS | SK-MEL-2 melanoma | SK-MEL-28 melanoma | SK-OV-3 ovarian | SN12C renal | SNB-19 CNS | SNB-75 CNS | SR leukemia | SW-620 colon | T-47D breast | TK-10 renal | U251 CNS | UACC-257 melanoma | UACC-62 melanoma | UO-31 renal
56.4 µM: SK-MEL-5 melanoma
29.2 µM: HL-60(TB) leukemia
84.8 µM: HCC-2998 colon
